Reference: PubChem BioAssay (NCI)
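The compound was tested at five concentrations on cells cultured in 96-well plates, with a 48-hour exposure period. GI50 = concentration required for 50% inhibition of growth. TGI: concentration producing complete growth inhibition.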

How the values were obtained:
Assay in all cases: NCI-60 cell line screen, 48 h
M14 melanoma = system: M14 melanoma
DU-145 prostate = system: DU-145 prostate
HCT-15 colon = system: HCT-15 colon
OVCAR-8 ovarian = system: OVCAR-8 ovarian
OVCAR-5 ovarian = system: OVCAR-5 ovarian
SK-OV-3 ovarian = system: SK-OV-3 ovarian
SNB-75 CNS = system: SNB-75 CNS
UACC-62 melanoma = system: UACC-62 melanoma
PC-3 prostate = system: PC-3 prostate
ACHN renal = system: ACHN renal
SR leukemia = system: SR leukemia
HT29 colon = system: HT29 colon
EKVX NSCLC = system: EKVX NSCLC
IGROV1 ovarian = system: IGROV1 ovarian
A549 NSCLC = system: A549 NSCLC
U251 CNS = system: U251 CNS
NCI-H226 lung = system: NCI-H226 lung
HS 578T breast = system: HS 578T breast
HCT-116 colon = system: HCT-116 colon
OVCAR-3 ovarian = system: OVCAR-3 ovarian
RXF 393 renal = system: RXF 393 renal
NCI-H522 lung = system: NCI-H522 lung
RPMI-8226 leukemia = system: RPMI-8226 leukemia
SNB-19 CNS = system: SNB-19 CNS
MCF7 breast = system: MCF7 breast
SN12C renal = system: SN12C renal
SK-MEL-28 melanoma = system: SK-MEL-28 melanoma
COLO 205 colon = system: COLO 205 colon
MDA-MB-231 breast = system: MDA-MB-231 breast
CAKI-1 renal = system: CAKI-1 renal
MDA-MB-435 = system: MDA-MB-435
SF-539 CNS = system: SF-539 CNS
MDA-N = system: MDA-N
OVCAR-4 ovarian = system: OVCAR-4 ovarian
HL-60(TB) leukemia = system: HL-60(TB) leukemia
NCI-H23 lung = system: NCI-H23 lung
NCI/ADR-RES ovarian = system: NCI/ADR-RES ovarian
K-562 leukemia = system: K-562 leukemia
SF-268 CNS = system: SF-268 CNS
HCC-2998 colon = system: HCC-2998 colon
SW-620 colon = system: SW-620 colon
LOX IMVI melanoma = system: LOX IMVI melanoma
HOP-62 NSCLC = system: HOP-62 NSCLC
T-47D breast = system: T-47D breast
KM12 colon = system: KM12 colon
SK-MEL-5 melanoma = system: SK-MEL-5 melanoma
786-0 renal = system: 786-0 renal
UACC-257 melanoma = system: UACC-257 melanoma
CCRF-CEM leukemia = system: CCRF-CEM leukemia
TK-10 renal = system: TK-10 renal
A498 renal = system: A498 renal
SF-295 CNS = system: SF-295 CNS
NCI-H460 lung = system: NCI-H460 lung
MALME-3M melanoma = system: MALME-3M melanoma
HOP-92 NSCLC = system: HOP-92 NSCLC
UO-31 renal = system: UO-31 renal
MOLT-4 leukemia = system: MOLT-4 leukemia
SK-MEL-2 melanoma = system: SK-MEL-2 melanoma

## Cc1cc(N=Cc2c(CO)cnc(C)c2O)c(N=Cc2c(CO)cnc(C)c2O)cc1C
M14 melanoma
  TGI: > 100 µM
DU-145 prostate
  TGI: > 100 µM
HCT-15 colon
  TGI: > 100 µM
OVCAR-8 ovarian
  TGI: > 100 µM
OVCAR-5 ovarian
  TGI: > 100 µM
SK-OV-3 ovarian
  TGI: > 100 µM
SNB-75 CNS
  TGI: > 100 µM
UACC-62 melanoma
  TGI: > 100 µM
PC-3 prostate
  TGI: > 100 µM
ACHN renal
  TGI: > 100 µM
SR leukemia
  GI50: 41.2 µM
  TGI: > 100 µM
HT29 colon
  TGI: > 100 µM
EKVX NSCLC
  TGI: > 100 µM
IGROV1 ovarian
  TGI: > 100 µM
A549 NSCLC
  TGI: > 100 µM
U251 CNS
  TGI: > 100 µM
NCI-H226 lung
  TGI: > 100 µM
HS 578T breast
  TGI: > 100 µM
HCT-116 colon
  TGI: > 100 µM
OVCAR-3 ovarian
  TGI: > 100 µM
RXF 393 renal
  TGI: > 100 µM
NCI-H522 lung
  TGI: > 100 µM
RPMI-8226 leukemia
  GI50: 26.1 µM
  TGI: > 100 µM
SNB-19 CNS
  TGI: > 100 µM
MCF7 breast
  TGI: > 100 µM
SN12C renal
  TGI: > 100 µM
SK-MEL-28 melanoma
  TGI: > 100 µM
COLO 205 colon
  TGI: > 100 µM
MDA-MB-231 breast
  TGI: > 100 µM
CAKI-1 renal
  TGI: > 100 µM
MDA-MB-435
  TGI: > 100 µM
SF-539 CNS
  TGI: > 100 µM
MDA-N
  TGI: > 100 µM
OVCAR-4 ovarian
  TGI: > 100 µM
HL-60(TB) leukemia
  GI50: 21.2 nM
  TGI: > 100 µM
NCI-H23 lung
  TGI: > 100 µM
NCI/ADR-RES ovarian
  TGI: > 100 µM
K-562 leukemia
  TGI: > 100 µM
SF-268 CNS
  TGI: > 100 µM
HCC-2998 colon
  TGI: > 100 µM
SW-620 colon
  TGI: > 100 µM
LOX IMVI melanoma
  TGI: > 100 µM
HOP-62 NSCLC
  TGI: > 100 µM
T-47D breast
  TGI: > 100 µM
KM12 colon
  TGI: > 100 µM
SK-MEL-5 melanoma
  TGI: > 100 µM
786-0 renal
  TGI: > 100 µM
UACC-257 melanoma
  TGI: > 100 µM
CCRF-CEM leukemia
  TGI: 80 µM
TK-10 renal
  TGI: > 100 µM
A498 renal
  TGI: > 100 µM
SF-295 CNS
  TGI: > 100 µM
NCI-H460 lung
  TGI: > 100 µM
MALME-3M melanoma
  TGI: > 100 µM

## Cn1cnc(C(=N)[Se])c1N
M14 melanoma
  TGI: > 100 µM
DU-145 prostate
  TGI: > 100 µM
HCT-15 colon
  TGI: > 100 µM
OVCAR-8 ovarian
  TGI: 3.31 µM
OVCAR-5 ovarian
  TGI: > 100 µM
SK-OV-3 ovarian
  TGI: 2.3 µM
SNB-75 CNS
  TGI: 4.38 µM
PC-3 prostate
  TGI: 14.9 µM
HT29 colon
  TGI: > 100 µM
A549 NSCLC
  TGI: > 100 µM
NCI-H226 lung
  TGI: 12.5 µM
HS 578T breast
  TGI: > 26.4 µM
HCT-116 colon
  TGI: > 100 µM
HOP-92 NSCLC
  TGI: > 100 µM
RPMI-8226 leukemia
  TGI: 6.95 µM
SNB-19 CNS
  TGI: > 28 µM
MCF7 breast
  TGI: > 29.3 µM
SK-MEL-28 melanoma
  TGI: > 100 µM
CAKI-1 renal
  TGI: 60.9 µM
MDA-MB-435
  TGI: > 100 µM
SF-539 CNS
  TGI: 4.18 µM
MDA-N
  TGI: > 100 µM
NCI-H23 lung
  TGI: > 27.1 µM
NCI/ADR-RES ovarian
  TGI: 3.15 µM
SF-268 CNS
  TGI: 4.94 µM
HCC-2998 colon
  TGI: > 100 µM
SW-620 colon
  TGI: > 100 µM
LOX IMVI melanoma
  TGI: > 100 µM
HOP-62 NSCLC
  TGI: > 23.4 µM
T-47D breast
  TGI: > 100 µM
KM12 colon
  TGI: > 28.8 µM
SK-MEL-5 melanoma
  TGI: > 100 µM
UACC-257 melanoma
  TGI: > 100 µM
CCRF-CEM leukemia
  TGI: 6.26 µM
TK-10 renal
  TGI: > 24.8 µM
A498 renal
  TGI: > 28.6 µM
NCI-H460 lung
  TGI: 1.55 µM
MALME-3M melanoma
  TGI: 8.89 µM

## C=C(C)[C@H]1CC(=O)[C@@]2(C)C[C@H]3O[C@]3(C)CC/C=C(\C)CC[C@H]12
DU-145 prostate
  TGI: > 100 µM
HCT-15 colon
  TGI: > 100 µM
OVCAR-8 ovarian
  TGI: > 100 µM
OVCAR-5 ovarian
  TGI: > 100 µM
SK-OV-3 ovarian
  TGI: > 100 µM
SNB-75 CNS
  TGI: > 100 µM
UACC-62 melanoma
  TGI: 74.1 µM
PC-3 prostate
  TGI: 86.2 µM
ACHN renal
  TGI: > 100 µM
HT29 colon
  TGI: > 100 µM
EKVX NSCLC
  TGI: > 100 µM
IGROV1 ovarian
  TGI: > 100 µM
A549 NSCLC
  TGI: > 100 µM
U251 CNS
  TGI: > 100 µM
NCI-H226 lung
  TGI: > 100 µM
HCT-116 colon
  TGI: 85.4 µM
OVCAR-3 ovarian
  TGI: 80.1 µM
RXF 393 renal
  TGI: 74.1 µM
HOP-92 NSCLC
  TGI: > 100 µM
NCI-H522 lung
  TGI: > 100 µM
RPMI-8226 leukemia
  TGI: 91.9 µM
SNB-19 CNS
  TGI: > 100 µM
MCF7 breast
  TGI: 57.3 µM
SN12C renal
  TGI: 54.9 µM
SK-MEL-28 melanoma
  TGI: > 100 µM
COLO 205 colon
  TGI: 44.4 µM
MDA-MB-231 breast
  TGI: > 100 µM
CAKI-1 renal
  TGI: 73 µM
UO-31 renal
  TGI: > 100 µM
MOLT-4 leukemia
  TGI: 60.9 µM
MDA-MB-435
  TGI: > 100 µM
SF-539 CNS
  TGI: > 100 µM
MDA-N
  TGI: > 100 µM
OVCAR-4 ovarian
  TGI: > 100 µM
HL-60(TB) leukemia
  TGI: 75.2 µM
NCI-H23 lung
  TGI: > 100 µM
NCI/ADR-RES ovarian
  TGI: > 100 µM
K-562 leukemia
  TGI: 47.2 µM
SF-268 CNS
  TGI: > 100 µM
HCC-2998 colon
  TGI: > 100 µM
SW-620 colon
  TGI: > 100 µM
LOX IMVI melanoma
  TGI: > 100 µM
HOP-62 NSCLC
  TGI: > 100 µM
T-47D breast
  TGI: > 100 µM
KM12 colon
  TGI: 54.6 µM
SK-MEL-5 melanoma
  TGI: 95.6 µM
786-0 renal
  TGI: > 100 µM
UACC-257 melanoma
  TGI: 55.8 µM
CCRF-CEM leukemia
  TGI: > 100 µM
TK-10 renal
  TGI: 71.1 µM
A498 renal
  TGI: 73.9 µM
SF-295 CNS
  TGI: > 100 µM
NCI-H460 lung
  TGI: > 100 µM
SK-MEL-2 melanoma
  TGI: > 100 µM
MALME-3M melanoma
  TGI: > 100 µM
